Test results: the supplement of paper PMC11061612

What was measured:
Assay in all cases: combination Emax (second highest fraction inhibited in the dose matrix, 72 h); higher = more inhibition; extreme values may be limits of the assay
[1] = tested on: HCT-15 (Colorectal Carcinoma)
How it was run: (§1)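 After 24 hours at 37°C and 5% CO2 in 1536-well plates, cells in DMEM/F12 or RPMI plus 10% FBS received two-drug dose matrices for 72 hours. Viability came from CellTiter-Glo 2.0 luminescence and was scaled as inhibition, anchored at 0 by vehicle wells and at 1 by blank wells. Combination Emax is taken as the second-highest inhibition in the matrix, and Bliss excess as the observed combination effect less EA + EB − EA·EB, with EA and EB the single-agent effects.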

[2] = tested on: HSC-39 (Gastric Carcinoma)
How it was run: as §1

[3] = tested on: LB996-RCC (Kidney Carcinoma)
How it was run: as §1

[4] = tested on: GP5d (Colorectal Carcinoma)
How it was run: as §1

[5] = tested on: KE-37 (T-Lymphoblastic Leukemia)
How it was run: as §1

A2058 (Melanoma) = tested on: A2058 (Melanoma)
How it was run: as §1

[6] = tested on: RCM-1 (Colorectal Carcinoma)
How it was run: as §1

[7] = tested on: SK-PN-DW (Other Solid Carcinomas)
How it was run: as §1

[8] = tested on: LK-2 (Squamous Cell Lung Carcinoma)
How it was run: as §1

[9] = tested on: TE-8 (Esophageal Squamous Cell Carcinoma)
How it was run: as §1

LN-229 (Glioblastoma) = tested on: LN-229 (Glioblastoma)
How it was run: as §1

[10] = tested on: 23132-87 (Gastric Carcinoma)
How it was run: as §1

[11] = tested on: CAL-62 (Thyroid Gland Carcinoma)
How it was run: as §1

SF268 (Low Grade Glioma) = tested on: SF268 (Low Grade Glioma)
How it was run: as §1

[12] = tested on: CAL-120 (Breast Carcinoma)
How it was run: as §1

[13] = tested on: RERF-GC-1B (Gastric Carcinoma)
How it was run: as §1

[14] = tested on: LXF-289 (Lung Adenocarcinoma)
How it was run: as §1

[15] = tested on: OAW-42 (Ovarian Carcinoma)
How it was run: as §1

[16] = tested on: RKN (Other Solid Carcinomas)
How it was run: as §1

WM793B (Melanoma) = tested on: WM793B (Melanoma)
How it was run: as §1

| Structure (SMILES) | combination Emax [1] | combination Emax [2] | combination Emax [3] | combination Emax [4] | combination Emax [5] | combination Emax (A2058 (Melanoma)) | combination Emax [6] | combination Emax [7] | combination Emax [8] | combination Emax [9] | combination Emax (LN-229 (Glioblastoma)) | combination Emax [10] | combination Emax [11] | combination Emax (SF268 (Low Grade Glioma)) | combination Emax [12] | combination Emax [13] | combination Emax [14] | combination Emax [15] | combination Emax [16] | combination Emax (WM793B (Melanoma)) |
| --- | --- | --- | --- | --- | --- | --- | --- | --- | --- | --- | --- | --- | --- | --- | --- | --- | --- | --- | --- | --- |
| COc1nnc2ccc(N3CCC(c4ccc(OCCN5CCN(C)C(=O)[C@H]5C)cc4)CC3)nn12 [AZD5153] + CCN(CCO)CCCOc1ccc2c(Nc3cc(CC(=O)Nc4cccc(F)c4)[nH]n3)ncnc2c1 [AZD2811] (first compound max 1 µM, 7x7, partner max 1 µM) | 0.807 | 0.952 | 0.534 | 0.728 | 1 | 0.788 | 0.612 | 0.726 | 0.625 | 0.556 | 0.411 | 0.173 | 0.774 | 0.609 | 0.441 | 0.685 | 0.82 | 0.459 | 0.44 | 0.641 |
| COc1nnc2ccc(N3CCC(c4ccc(OCCN5CCN(C)C(=O)[C@H]5C)cc4)CC3)nn12 [AZD5153] + C[C@@H]1COCCN1C2=NC(=NC(=C2)C3(CC3)[S@](=N)(=O)C)C4=C5C=CNC5=NC=C4 [AZD6738] (first compound max 1 µM, 7x7, partner max 10 µM) | 0.858 | 1 | 0.731 | 0.855 | 0.978 | 0.908 | 0.674 | 0.868 | 0.784 | 0.617 | 0.575 | 0.594 | 0.895 | 0.773 | 0.589 | 0.796 | 0.862 | 0.702 | 0.562 | 0.827 |
| COc1nnc2ccc(N3CCC(c4ccc(OCCN5CCN(C)C(=O)[C@H]5C)cc4)CC3)nn12 [AZD5153] + Cc1c2c(nn1C)CSCc1cc(n(C)n1)CSc1cc(c3ccccc3c1)OCCCc1c(C(=O)O)n(C)c3c-2c(Cl)ccc13 [AZD5991] (first compound max 1 µM, 7x7, partner max 1 µM) | 0.75 | 1 | 0.491 | 0.961 | 0.997 | 0.975 | 0.619 | 0.985 | 0.413 | 0.705 | 0.629 | 0.87 | 0.795 | 0.569 | 0.403 | 0.985 | 0.903 | 0.615 | 0.495 | 0.688 |
| COc1nnc2ccc(N3CCC(c4ccc(OCCN5CCN(C)C(=O)[C@H]5C)cc4)CC3)nn12 [AZD5153] + Cn1cnc2c(F)c(Nc3ccc(Br)cc3Cl)c(C(=O)NOCCO)cc21 [Selumetinib] (first compound max 1 µM, 7x7, partner max 10 µM) | 0.819 | 0.76 | 0.482 | 0.887 | 0.654 | 0.842 | 0.817 | 0.559 | 0.6 | 0.575 | 0.511 | 0.2 | 0.844 | 0.518 | 0.479 | 0.753 | 0.646 | 0.426 | 0.577 | 0.786 |
| Cc1c2c(nn1C)CSCc1cc(n(C)n1)CSc1cc(c3ccccc3c1)OCCCc1c(C(=O)O)n(C)c3c-2c(Cl)ccc13 [AZD5991] + C1CN(CCC1(C(=O)N[C@@H](CCO)C2=CC=C(C=C2)Cl)N)C3=NC=NC4=C3C=CN4 [Capivasertib] (first compound max 1 µM, 7x7, partner max 3 µM) | 0.209 | 1 | 0.433 | 0.733 | 1 | 0.908 | 0.307 | 0.95 | 0.121 | 0.523 | 0.42 | 0.934 | 0.152 | 0.216 | 0.256 | 0.989 | 0.369 | 0.37 | 0.173 | 0.31 |
| Cc1c2c(nn1C)CSCc1cc(n(C)n1)CSc1cc(c3ccccc3c1)OCCCc1c(C(=O)O)n(C)c3c-2c(Cl)ccc13 [AZD5991] + C=CCn1c(=O)c2cnc(Nc3ccc(N4CCN(C)CC4)cc3)nc2n1-c1cccc(C(C)(C)O)n1 [AZD1775] (first compound max 1 µM, partner max 1 µM) | 0.557 | 1 | 0.856 | 0.977 | 0.995 | 0.892 | 0.536 | 0.962 | 0.88 | 0.818 | 0.855 | 0.96 | 0.766 | 0.577 | 0.405 | 1 | 0.813 | 0.502 | 0.223 | 0.582 |
